For the assay, the target named is CFTR (Homo sapiens, UniProt P13569). The assay can be described thus: Membrane potential dye, Enteroid Assay B. The settings on record: for EC50: read-out: Ent. B EC50; for Ent. B Max Activity: chloride transport as % of triple combination control (Enteroid Assay B). In kind it is cell-based. As for the experimental part: Base medium (ADF+++) consisted of Advanced DMEM/Ham's F12, 2 mM Glutamax, 10 mM HEPES, […] penicillin/streptomycin.
Intestinal enteroid maintenance medium (IEMM) consisted of ADF+++, 1× B27 supplement, 1× N2 supplement, 1.25 mM N-acetyl cysteine, 10 mM Nicotinamide, 50 ng/mL hEGF, 10 nM Gastrin, 1 μg/mL hR-spondin-1, 100 ng/mL hNoggin, TGF-b type 1 inhibitor A-83-01, 100 μg/mL Primocin, 10 μM P38 MAPK inhibitor SB202190.
Bath 1 Buffer consisted of 1 mM MgCl2, 160 mM NaCl, 4.5 mM KCl, 10 mM HEPES, 10 mM Glucose, 2 mM CaCl2).
Chloride Free Buffer consisted of 1 mM Magnesium Gluconate, 2 mM Calcium Gluconate, 4.5 mM Potassium Gluconate, 160 mM Sodium Gluconate, 10 mM HEPES, 10 mM Glucose.
BathI Dye Solution consisted of Bath 1 Buffer, 0.04% Pluronic F127, 20 μM Methyl Oxonol, 30 μM CaCCinh-A01, 30 μM Chicago Sky Blue.
Chloride Free Dye Solution consisted of Chloride Free Buffer, 0.04% Pluronic F127, 20 μM Methyl Oxonol, 30 μM CaCCinh-A01, 30 μM Chicago Sky Blue.
Chloride Free Dye Stimulation Solution consisted of Chloride Free Dye Solution, 10 μM forskolin, 100 μM IBMX, and 300 nM Compound III.
Human intestinal epithelial enteroid cells were obtained from the Hubrecht Institute for Developmental Biology and Stem Cell Research, Utrecht, The Netherlands and expanded in T-Flasks as previously described (Dekkers J F, Wiegerinck C L, de Jonge H R, Bronsveld I, Janssens H M, de Winter-de Groot K M, Brandsma A M, de Jong N W M, Bijvelds M J C, Scholte B J, Nieuwenhuis E E S, van den Brink S, Clevers H, van der Ent C K, Middendorp S and M Beekman J M. A functional CFTR assay using primary cystic fibrosis intestinal organoids. Nat Med. 2013 July;19(7):939-45.).
3. Enteroid Cell Harvesting and Seeding
Cells were recovered in cell recovery solution, collected by centrifugation at 650 rpm for 5 min at 4° C., resuspended in TrypLE and incubated for 5 min at 37° C. Cells were then collected by centrifugation at 650 rpm for 5 min at 4° C. and resuspended in IEMM containing 10 μM ROCK inhibitor (RI). The cell suspension was passed through a 40 μm cell strainer and resuspended at 1×10^6 cells/mL in IEMM containing 10 μM RI. Cells were seeded at 5000 cells/well into multi-well plates and incubated for overnight at 37° C., 95% humidity and 5% CO2 prior to assay.
5. Membrane Potential Dye, Enteroid Assay B
Enteroid cells were incubated with test compound in IEMM for 18-24 hours at 37° C., 95% humidity and 5% CO2. […] Briefly, cells were washed 5 times in Bath 1 Buffer. Bath 1 Dye Solution was added and the cells were incubated for 25 min at room temperature. Following dye incubation, cells were washed 3 times in Chloride Free Dye Solution. Chloride transport was initiated by addition of Chloride Free Dye Stimulation Solution and the fluorescence signal was read for 15 min. […] Chloride transport was then expressed as a percentage of the chloride transport following treatment with 1 μM (14S)-8-[3-(2-{Dispiro[2.0.2.1]heptan-7-yl}ethoxy)-1H-pyrazol-1-yl]-12,12-dimethyl-2λ^6-thia-3,9,11,18,23-pentaazatetracyclo[17.3.1.111,14.05,10]tetracosa-1(22),5,7,9,19(23),20-hexaene-2,2,4-trione, 3 μM (R)-1-(2,2-difluorobenzo[d][1,3]dioxol-5-yl)-N-(1-(2,3-dihydroxypropyl)-6-fluoro-2-(1-hydroxy-2-methylpropan-2-yl)-1H-indol-5-yl)cyclopropanecarboxamide and 300 nM acute N-[2,4-bis(1,1-dimethylethyl)-5-hydroxyphenyl]-1,4-dihydro-4-oxoquinoline-3-carboxamide triple combination control (% Activity).

Setting [1] is: Table 8, human enteroid cells, 18-24 hours, acute 10 μM forskolin and 300 nM ivacaftor.

SMILES strings stand for the structures. Where two headings read alike, the source gives them in different places. A value given as a limit tells only on which side of the number the result lay.

The values that follow come from patent US20240150377A1, “MODULATORS OF CYSTIC FIBROSIS TRANSMEMBRANE CONDUCTANCE REGULATOR” (VERTEX PHARMACEUTICALS INCORPORATED, priority 2020, published 2024).

As a reminder, the EC50 is the concentration giving half of the maximal effect.

Chain of CFTR (P13569 with tags, fused parts or gaps DEL508-508): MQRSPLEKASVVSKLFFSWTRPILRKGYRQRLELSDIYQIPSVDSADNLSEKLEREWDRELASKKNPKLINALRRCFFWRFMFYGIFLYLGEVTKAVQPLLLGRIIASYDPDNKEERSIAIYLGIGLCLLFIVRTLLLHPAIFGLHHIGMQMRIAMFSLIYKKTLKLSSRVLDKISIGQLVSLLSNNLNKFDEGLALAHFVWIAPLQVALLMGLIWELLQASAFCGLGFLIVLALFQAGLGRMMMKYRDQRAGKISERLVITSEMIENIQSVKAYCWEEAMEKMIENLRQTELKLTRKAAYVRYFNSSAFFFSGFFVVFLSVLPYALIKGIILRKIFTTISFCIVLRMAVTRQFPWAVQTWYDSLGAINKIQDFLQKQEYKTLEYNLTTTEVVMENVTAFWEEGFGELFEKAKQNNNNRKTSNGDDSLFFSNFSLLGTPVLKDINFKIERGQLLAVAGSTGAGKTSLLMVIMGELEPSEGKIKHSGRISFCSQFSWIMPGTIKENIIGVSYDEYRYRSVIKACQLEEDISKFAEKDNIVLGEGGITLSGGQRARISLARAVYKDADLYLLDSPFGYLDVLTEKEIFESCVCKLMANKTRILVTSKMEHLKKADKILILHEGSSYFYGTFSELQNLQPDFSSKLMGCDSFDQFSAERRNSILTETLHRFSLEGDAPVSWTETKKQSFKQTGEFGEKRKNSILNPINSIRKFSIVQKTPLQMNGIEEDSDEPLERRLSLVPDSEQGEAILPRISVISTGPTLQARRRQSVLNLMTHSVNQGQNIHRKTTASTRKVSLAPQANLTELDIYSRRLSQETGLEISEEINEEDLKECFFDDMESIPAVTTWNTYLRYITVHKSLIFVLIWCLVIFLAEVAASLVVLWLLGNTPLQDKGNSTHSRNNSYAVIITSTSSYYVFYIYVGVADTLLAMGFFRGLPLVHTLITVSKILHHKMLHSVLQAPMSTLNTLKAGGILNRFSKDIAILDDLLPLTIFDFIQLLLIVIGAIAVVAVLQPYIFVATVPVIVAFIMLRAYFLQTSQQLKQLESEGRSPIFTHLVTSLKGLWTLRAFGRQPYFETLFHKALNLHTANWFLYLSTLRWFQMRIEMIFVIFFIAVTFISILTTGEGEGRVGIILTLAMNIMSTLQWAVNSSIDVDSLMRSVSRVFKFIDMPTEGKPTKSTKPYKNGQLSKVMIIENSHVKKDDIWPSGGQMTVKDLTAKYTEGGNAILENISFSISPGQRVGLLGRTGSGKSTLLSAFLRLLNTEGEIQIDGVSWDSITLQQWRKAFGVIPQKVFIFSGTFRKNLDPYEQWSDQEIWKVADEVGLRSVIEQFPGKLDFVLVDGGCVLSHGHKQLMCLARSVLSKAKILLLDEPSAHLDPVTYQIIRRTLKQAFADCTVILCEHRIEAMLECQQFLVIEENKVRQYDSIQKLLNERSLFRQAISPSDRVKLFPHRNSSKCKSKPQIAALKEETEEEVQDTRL

Consider `Cc1cccc(C)c1-c1cc2nc(n1)NS(=O)(=O)c1cccc(c1)C(=O)N(CCC1CCOCC1)[C@@H]1CN(C3CC4(CCCC4)C3)C[C@H]1O2` [Compound 1191, (3R,7R)-19-(2,6-Dimethylphenyl)-8-[2-(oxan-4-yl)ethyl]-5-{spiro[3.4]octan-2-yl}-2-oxa-15λ^6-thia-5,8,16,18,21-pentaazatetracyclo[15.3.1.110,14.03,7]docosa-1(20),10(22),11,13,17(21),18-hexaene-9,15,15-trione], for which, under “Table 9”, the “Ent. B Max Activity (%)” value is “+++ (+++ is >600%)” and the EC50 is less than 1000 nM.
For `Cc1cccc(C)c1-c1cc2nc(n1)NS(=O)(=O)c1cccc(c1)C(=O)N(C)CC(c1ccc(CC3(C(F)(F)F)CC3)cn1)O2` (centres unmarked) [Compound 336], the “Ent. B Max Activity” value (Table 8) was “+++ (+++ is >60%)”. Under setting [1], the EC50 was less than 1000 nM.
Consider `Cc1cccc(C)c1-c1cc2nc(n1)NS(=O)(=O)c1cccc(c1)C(=O)N(Cc1cccc(N)n1)[C@H](CC(C)(C)C)CO2` [Compound 125, (11R)-12-[(6-Amino-2-pyridyl)methyl]-6-(2,6-dimethylphenyl)-11-(2,2-dimethylpropyl)-2,2-dioxo-9-oxa-2λ^6-thia-3,5,12,19-tetrazatricyclo[12.3.1.14,8]nonadeca-1(18),4(19),5,7,14,16-hexaen-13-one], for which, under “Table 9”, the “Ent. B Max Activity (%)” value is recorded as “+++ (+++ is >600%)” and the half-maximal effective concentration (EC50) was less than 1000 nM.
As to `Cc1cccc(C)c1-c1cc2nc(n1)NS(=O)(=O)c1cccc(c1)C(=O)N(CCCCC(C)(C)O)[C@H](CC(C)(C)C)CO2` [Compound 107, (11R)-6-(2,6-Dimethylphenyl)-11-(2,2-dimethylpropyl)-12-(5-hydroxy-5-methyl-hexyl)-2,2-dioxo-9-oxa-2λ^6-thia-3,5,12,19-tetrazatricyclo[12.3.1.14,8]nonadeca-1(18),4(19),5,7,14,16-hexaen-13-one], the “Ent. B Max Activity” value (Table 8) was “+++ (+++ is >60%)”. For the same compound, the EC50 under setting [1] was less than 1000 nM.
`Cc1cccc(C)c1-c1cc2nc(n1)NS(=O)(=O)c1cccc(c1)C(=O)N(CCCO)[C@H](CC(C)C)CO2` [Compound 96, (11R)-6-(2,6-Dimethylphenyl)-12-(3-hydroxypropyl)-11-(2-methylpropyl)-9-oxa-2λ^6-thia-3,5,12,19-tetraazatricyclo[12.3.1.14,8]nonadeca-1(18),4,6,8(19),14,16-hexaene-2,2,13-trione]: the “Ent. B Max Activity” value (Table 8) is recorded as “+++ (+++ is >60%)”. Moreover, under setting [1], the EC50 is less than 1000 nM.
Regarding `CC(=O)N(C)CCN1C(=O)c2cccc(c2)S(=O)(=O)Nc2nc(cc(-c3c(C)cccc3C)n2)OC[C@H]1CC(C)C` [Compound 405], the “Ent. B Max Activity” value (Table 8) was “+++ (+++ is >60%)”. Further, the EC50 under setting [1] was less than 1000 nM.
For `CNC(=O)Cc1ccc(CN2C(=O)c3cccc(c3)S(=O)(=O)Nc3nc(cc(-c4c(C)cccc4C)n3)OC[C@H]2CC(C)(C)C)cc1` [Compound 846], for the setting “Table 9”, the “Ent. B Max Activity (%)” value is “+++ (+++ is >600%)” and the concentration giving a half-maximal response (EC50) was less than 1000 nM.
The matching figures for `Cc1cccc(C)c1-c1cc2nc(n1)NS(=O)(=O)c1cccc(c1)C(=O)N(Cc1nc3ccccc3o1)[C@H](CC(C)(C)C)CO2` [Compound 803]: “+++ (+++ is >600%)” and less than 1000 nM.
Turning to `Cc1cccc(C)c1-c1cc2nc(n1)NS(=O)(=O)c1cccc(c1)C(=O)N(Cc1ccc(CC(N)=O)cc1)[C@H](CC(C)(C)C)CO2` [Compound 847], under “Table 9”, the “Ent. B Max Activity (%)” value was “+++ (+++ is >600%)” and the concentration for a half-maximal effect (EC50) is less than 1000 nM.
Regarding `CNC(=O)CCCN1C(=O)c2cccc(c2)S(=O)(=O)Nc2nc(cc(-c3c(C)cccc3C)n2)OC[C@H]1CC(C)C` [Compound 406], the “Ent. B Max Activity” value (Table 8) is reported as “+++ (+++ is >60%)”. The EC50 under setting [1] is 1000 to 3000 nM.
The matching figures for `CCOC(=O)CCCCN1C(=O)c2cc(nn2C)S(=O)(=O)Nc2nc(cc(-c3c(C)cccc3C)n2)OC[C@H]1CC(C)(C)C` [Compound 922]: “++ (++ is 30-60%)” and 3000 to 30000 nM.
With `Cc1cccc(C)c1-c1cc2nc(n1)NS(=O)(=O)c1cccc(c1)C(=O)N(Cc1ccc(NC(=O)OC(C)C)nc1)[C@H](CC(C)(C)C)CO2` [Compound 401], for the setting “Table 8”, the “Ent. B Max Activity” value was “+++ (+++ is >60%)”. Besides, under setting [1], the EC50 is less than 1000 nM.
`Cc1cccc(C)c1-c1cc2nc(n1)NS(=O)(=O)c1cccc(c1)C(=O)N(Cc1cccc(CN(C)C)c1)[C@H](CC(C)C)CO2` [Compound 1102]: the “Ent. B Max Activity” value (Table 8) is reported as “+++ (+++ is >60%)”. In addition, the EC50 under setting [1] is less than 1000 nM.
Consider `Cc1cccc(C)c1-c1cc2nc(n1)NS(=O)(=O)c1cc(n(C)n1)C(=O)N(Cc1ccc(C(C)(C)O)cc1)[C@H](CC(C)(C)C)CO2` [Compound 923], for which, where the note is “Table 8”, the “Ent. B Max Activity” value is on record as “+++ (+++ is >60%)”. Besides, under setting [1], the EC50 is less than 1000 nM.
The matching figures for `Cc1cccc(C)c1-c1cc2nc(n1)NS(=O)(=O)c1cccc(c1)C(=O)N(C)CC(c1ccc(CC3(C(F)(F)F)CC3)cn1)O2` (single isomer, unassigned) [Compound 105, 6-(2,6-dimethylphenyl)-12-methyl-10-(5-{[1-(trifluoromethyl)cyclopropyl]methyl}pyridin-2-yl)-9-oxa-2λ^6-thia-3,5,12,19-tetraazatricyclo[12.3.1.14,8]nonadeca-1(17),4(19),5,7,14(18),15-hexaene-2,2,13-trione]: “+ (+ is <30%)” and less than 1000 nM.
On to `Cc1cccc(C)c1-c1cc2nc(n1)NS(=O)(=O)c1cccc(c1)C(=O)N(CCC(C)(C)C#N)[C@H](CC(C)C)CO2` [Compound 1105], for which the “Ent. B Max Activity” value (Table 7) is reported as “+++ (+++ is >60%)”. Under “Table 7, human enteroid cells, 18-24 hours, acute 10 μM forskolin and 300 nM ivacaftor”, the EC50 is less than 1000 nM.
On to `Cc1cccc(C)c1-c1cc2nc(n1)NS(=O)(=O)c1cccc(c1)C(=O)N(CCCC(C)(C)O)[C@H](CC(C)(C)C)CO2` [Compound 1093], for which, under “Table 8”, the “Ent. B Max Activity” value was “+++ (+++ is >60%)”. Further, the EC50 under setting [1] is less than 1000 nM.
For the compound `Cc1cccc(C)c1-c1cc2nc(n1)NS(=O)(=O)c1cccc(c1)C(=O)N(Cc1cccc(NC(=O)OC(C)C)c1)[C@H](CC(C)(C)C)CO2` [Compound 507], the “Ent. B Max Activity” value (Table 8) is listed as “+++ (+++ is >60%)”. For the same compound, the EC50 under setting [1] is less than 1000 nM.
For `Cc1cccc(C)c1-c1cc2nc(n1)NS(=O)(=O)c1cccc(c1)C(=O)N(Cc1ccc(-c3csc(OC(C)C)n3)cc1)[C@H](CC(C)(C)C)CO2` [Compound 318], under “Table 9”, the “Ent. B Max Activity (%)” value is “+++ (+++ is >600%)” and the EC50 is less than 1000 nM.
Turning to `Cc1cccc(C)c1-c1cc2nc(n1)NS(=O)(=O)c1cccc(c1)C(=O)N(Cc1cncnc1)[C@H](CC(C)(C)C)CO2` [Compound 1095], the “Ent. B Max Activity” value (Table 8) is reported as “+++ (+++ is >60%)”. Besides, under setting [1], the EC50 is less than 1000 nM.
Consider `CNC(=O)c1ccc(CN2C(=O)c3cccc(c3)S(=O)(=O)Nc3nc(cc(-c4c(C)cccc4C)n3)OC[C@H]2CC(C)(C)C)nc1` [Compound 397], for which the “Ent. B Max Activity” value (Table 8) was “+++ (+++ is >60%)”. The EC50 under setting [1] was less than 1000 nM.
Consider `Cc1cccc(C)c1-c1cc2nc(n1)NS(=O)(=O)c1cccc(c1)C(=O)N(Cc1ncc(Cl)cn1)[C@H](CC(C)(C)C)CO2` [Compound 805], for which, for the setting “Table 9”, the “Ent. B Max Activity (%)” value is on record as “+++ (+++ is >600%)” and the EC50 was less than 1000 nM.
